In US6921811B2, “Bioactive coating composition and methods” (BioSurface Engineering Technologies, Inc., priority 1998, dated 2005):

Tests used:
[1] = system: thigh muscle of adult rats; experiment: Coated Vicryl sutures implanted in muscle, histology; format: in vivo; details: two weeks; compared to control suture
Description: Vicryl suture material was coated using a solution containing silyl-heparin complex or a solution containing silyl-heparin complex followed by immersion in bFGF as described above. The suture material was then rinsed extensively, air-dried, mounted on 16 gage needles and stored until use, typically overnight. Under anesthesia, the sutures were passed through the thigh muscle of adult rats and secured with knots and surgical clips. After two weeks the animals were euthanized and the sutured area removed, fixed in formalin, and processed by standard histological methods.

[2] = system: C3H10T1/2 (murine fibroblasts); experiment: Cell attachment, spreading and growth on coated low-attachment polystyrene wells; format: cell-based; details: C3H10T1/2; coated low-attachment polystyrene wells; 10^4 cells/well; serum-containing medium
Description: Several cell types were used, including GS-9L cells (rat gliosarcoma), C3H10T1/2 (murine fibroblasts), Jurkat (human T cell), bovine aorta endothelial (BAE) cells and rat lymphocytes. GS-9L and C3H10T1/2 cells were maintained in log phase growth and detached from cultureware using Versene and collected by centrifugation. Jurkat cells grew as single cell suspensions and were collected by centrifugation. Rat lymphocytes were collected from heparinized blood by density gradient isolation over Ficoll-Hypaque® media. The collected cells were rinsed once by low speed centrifugation and suspended in either serum-free Dulbecco's Modified Eagles Medium (DMEM) containing pyruvate or RPMI 1640 containing 10% fetal bovine serum (FBS) supplemented with pyruvate. Aliquots of 10^4 cells in 100 μL were used in subsequent adhesion studies.
The cells were examined after plating using an inverted, phase-contrast microscope. At selected time points up to 4 days after initial seeding, the cells were rinsed three times in saline and fixed in buffered 10% formalin or 35% ethanol. In some cases, the cells were stained in situ with a 0.01 % aqueous solution of crystal violet. The amount of attachment was scored visually or quantitated. To establish the relative number of cells bound, crystal violet stained cells were dissolved in a solution of 70% ethanol containing 0.1% sodium dodecyl sulfate and 0.38 M Tris and the absorbance monitored at 610 nm, using the methods of Scragg and Ferreira (Anal Biochem 198:80-5, 1991) and Grando et al. (Skin Pharmacol 6:135-47, 1993).
The cells of Example 7 were added to untreated polystyrene wells, wells coated with silyl-heparin as in Example 4, with silyl-heparin-fibronectin as in Example 5, and with only fibronectin by incubation as described in Example 5. […] Cells were seeded at a concentration of 10^4 cells/well in serum-containing medium.
The cells grew to confluency by 4 days. […] No effort was made to grow the cells in a defined- or serum-low medium known to support growth. […]

C3H10T1/2 cells = experiment: Cross-titration of fibronectin and silyl-heparin needed to support cell attachment; format: cell-based, murine; details: silyl-heparin titrated from 30 μg/well, fibronectin then applied at 4 μg/well; 24 hours; crystal violet, 610 nm
Experimental: The optimal amount of fibronectin and silyl-heparin to support attachment of C3H10T1/2 cells was determined by cross-titration, as shown on FIG. 1. […] The fall-off for the silyl-heparin was more gradual. The curve of the relative amount of silyl-heparin on the substrate following serial dilution generally followed the cell attachment curve.
In FIG. 1, fibronectin (Δ—Δ) or silyl-heparin (•—•) were titrated to determine the quantity needed to support attachment of C3H10T1/2 cells. All dilutions were performed in quadruplicate in wells of 96-well plates of low-attachment polystyrene. For titration of fibronectin, silyl-heparin was applied at 30 μg/well in 70% ethanol as in Example 4. After rinsing, fibronectin was applied in doubling dilutions of phosphate buffered saline starting from 4 μg/well. For titration of silyl-heparin, silyl-heparin was applied in doubling dilutions in 70% ethanol starting from silyl-heparin concentrations of 30 μg/well. Fibronectin was then applied in saline at 4 μg/well. Cells were at a concentration of 10^4 cells/well in growth medium. For both experiments, the cells were allowed 24 hours to attach and then were rinsed and fixed in buffered formalin. The cells were stained for 5 minutes with 0.01% aqueous crystal violet and the absorbance at 610 nm determined.

[3] = molecular target: T1, vascular endothelial growth factor (VEGF) (Homo sapiens, UniProt P15692); experiment: VEGF binding to silyl-heparin coated wells, immunoassay; details: anti-VEGF antibodies; absorbance 405 nm
T1 sequence (P15692 27-191 isoform P15692-4 limits assumed): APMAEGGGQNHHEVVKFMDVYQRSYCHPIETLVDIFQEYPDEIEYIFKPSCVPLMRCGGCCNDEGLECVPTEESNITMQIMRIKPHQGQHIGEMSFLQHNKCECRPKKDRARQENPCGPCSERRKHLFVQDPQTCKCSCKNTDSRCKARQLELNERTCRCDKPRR
Experimental: Wells of 96 well polystyrene microtiter plates were coated with 30 μL of silyl heparin for 15 minutes at 37° C. The wells were rinsed extensively in water and air-dried. The wells were blocked by adding 250 μL of PBS containing 1 % BSA for 30 minutes. After removing the blocking solution, VEGF in PBS/BSA was added in 100 μL and at the appropriate concentration. The plate was incubated at 37° C. for 1 hour and rinsed 5 times in water. An aliquot of PBS/BSA containing rabbit anti-VEGF antibodies (1:125) was added and the plate incubated for one hour. After rinsing in water, an aliquot of PBS/BSA containing horseradish peroxidase-conjugated anti-rabbit IgG (1:250) was added and incubated for one hour. After rinsing, 200 μL of chromogen (2,2′-azinobis 3-ethylbenzothiazoline-6-[…]) from a commercially available kit was added, the color developed, and the reaction stopped by adding 50 μL of aqueous 2% sodium dodecyl sulfate (SDS). The absorbance was monitored at 405 nm.

benzyl-(1,2 dimethyl)disilyl heparin [silyl-heparin]
diameter or area of granulation tissue surrounding the suture [1]: tended to have a smaller area of granulation | CELL ATTACHMENT [2]: did not attach | EC50 to support attachment of C3H10T1/2 cells (C3H10T1/2 cells): about 8.7 μg/well | binding of VEGF to silyl-heparin [3]: VEGF bound to silyl-heparin and the binding was linear
